Assay results: PMC7702303, “Biochemical and transcript level differences between the three human phosphofructokinases show optimisation of each isoform for specific metabolic niches” (Biochemical Journal, 2020)
One block for each molecule: values may come before it.

Columns and labels:
[1] = target: T1, recombinant human PFK-L (Homo sapiens, UniProt P17858); assay: ALDO-TIM-G3PDH enzyme-linked kinetic assay, PFK-L; type: biochemical; settings: PFK-L; for K0.5F6P + modulator / VmaxF6P + modulator: ATP 0.5mM; for K0.5F6P + modulator / VmaxF6P + modulator / K0.5ATP + modulator / VmaxATP + modulator: N=3, mean (SD); for K0.5ATP + modulator / VmaxATP + modulator: F6P 4mM
T1 construct: made in house; host or cells: PFK-deficient Saccharomyces cerevisiae
T1 sequence (P17858 1-780): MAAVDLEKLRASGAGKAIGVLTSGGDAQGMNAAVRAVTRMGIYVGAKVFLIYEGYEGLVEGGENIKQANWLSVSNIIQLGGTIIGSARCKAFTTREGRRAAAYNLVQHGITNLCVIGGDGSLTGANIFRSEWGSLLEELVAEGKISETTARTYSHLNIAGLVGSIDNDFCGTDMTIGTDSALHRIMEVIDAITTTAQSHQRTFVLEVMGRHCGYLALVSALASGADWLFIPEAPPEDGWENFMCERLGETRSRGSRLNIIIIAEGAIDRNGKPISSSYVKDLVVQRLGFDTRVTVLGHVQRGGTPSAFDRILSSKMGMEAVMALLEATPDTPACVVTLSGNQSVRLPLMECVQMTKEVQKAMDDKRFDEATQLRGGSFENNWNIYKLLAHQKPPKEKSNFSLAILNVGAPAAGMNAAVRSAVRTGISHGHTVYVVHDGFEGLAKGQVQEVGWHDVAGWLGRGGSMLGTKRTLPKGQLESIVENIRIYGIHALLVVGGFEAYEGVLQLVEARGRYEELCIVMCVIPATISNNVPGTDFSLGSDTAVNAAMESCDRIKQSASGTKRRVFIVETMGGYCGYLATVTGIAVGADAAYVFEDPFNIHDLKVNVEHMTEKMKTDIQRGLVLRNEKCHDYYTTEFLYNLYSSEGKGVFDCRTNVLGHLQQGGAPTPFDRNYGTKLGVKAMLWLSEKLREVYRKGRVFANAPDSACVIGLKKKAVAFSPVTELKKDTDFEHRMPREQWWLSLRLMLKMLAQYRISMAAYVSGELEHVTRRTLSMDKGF
Method: (§1) Recombinant human PFKs were expressed in PFK-deficient Saccharomyces cerevisiae and purified using the methods described previously, adapting earlier materials and protocols. Production of PFK intended for use in ATP titration experiments used 1 mM F6P as a tetramer stabilising agent in protein purification and storage buffers. Production of PFK intended for use in F6P titration experiments used 1 mM ATP as a tetramer stabilising agent in protein purification and storage buffers. Experimental details on the purification and characterisation procedures including figures showing SDS–PAGE gels of the highly pure PFKs used in the kinetic experiments described in this work have been recently published.
(§2) Assay buffer consisted of 50 mM TEA, 100 mM KCl, 10 mM MgCl2, 1 mM Tris(2-carboxyethyl)phosphine hydrochloride (TCEP), 10% glycerol, pH 7.4. Assay mix consisted of 5 units/ml glycerol-3-phosphate dehydrogenase (G3PDH, Sigma–Aldrich G6880), 2.5 units/ml aldolase (Sigma–Aldrich A2714), 25 units/ml triosephosphate isomerase (TIM, Sigma–Aldrich T6258), and 1.25 mM NADH. ATP and F6P were obtained from Sigma–Aldrich (A2383 and F3627, respectively). For ATP titrations, 38 µl of buffer or ligand were added to a clear non-binding 96-well plate. 40 µl of assay mix containing 10 mM F6P (final concentration 4 mM) was added and the plate was incubated at 25°C for 5 min. An amount of 2 µl of PFK isoforms were added to each well from stock concentrations of 150 µg/ml and the reaction was immediately started with 20 µl of ATP at varying concentrations. For F6P titrations, 30 µl of buffer or ligand was added to a clear non-binding 96-well plate. An amount of 40 µl of assay mix containing 1.25 mM ATP (final concentration 0.5 mM) was added and the plate was incubated at 25°C for 5 min. An amount of 5 µl of PFK isoforms were added to each well from stock concentrations of 200 µg/ml and the reaction was immediately started with 20 µl F6P at varying concentrations. All ligands and substrates (including ATP) were used at pH 7.4. All metabolites were obtained from Sigma–Aldrich unless otherwise stated. […] A SpectraMax M5 Multi-Mode Microplate Reader was used to measure A340nm at 13 s intervals for 10 min. All experiments were performed in triplicate unless otherwise stated.
(§3) Time-dependent absorbance change was converted into rate of NADH oxidation (µM s^−1) or specific activity (µmol min^−1 mg protein^−1) using the Beer-Lambert law (molar extinction coefficient of NADH 6.22 mM^−1 cm^−1). The initial rate of reaction was used to avoid accumulation of ADP, which activates PFK, interfering with the determination of kinetic properties. Non-linear regression analysis was performed on substrate titration data using GraphPad Prism 7, with curves fitted using allosteric sigmoidal models, enabling determination of steady-state kinetic values.

[2] = target: T2, recombinant human PFK-P (Homo sapiens, UniProt Q01813); assay: ALDO-TIM-G3PDH enzyme-linked kinetic assay, PFK-P; type: biochemical; settings: for K0.5F6P + modulator / VmaxF6P + modulator: ATP 0.5mM; for K0.5F6P + modulator / VmaxF6P + modulator / K0.5ATP + modulator / VmaxATP + modulator: N=3, mean (SD); for K0.5ATP + modulator / VmaxATP + modulator: F6P 4mM
T2 construct: made in house; host or cells: PFK-deficient Saccharomyces cerevisiae
T2 sequence (Q01813 1-784): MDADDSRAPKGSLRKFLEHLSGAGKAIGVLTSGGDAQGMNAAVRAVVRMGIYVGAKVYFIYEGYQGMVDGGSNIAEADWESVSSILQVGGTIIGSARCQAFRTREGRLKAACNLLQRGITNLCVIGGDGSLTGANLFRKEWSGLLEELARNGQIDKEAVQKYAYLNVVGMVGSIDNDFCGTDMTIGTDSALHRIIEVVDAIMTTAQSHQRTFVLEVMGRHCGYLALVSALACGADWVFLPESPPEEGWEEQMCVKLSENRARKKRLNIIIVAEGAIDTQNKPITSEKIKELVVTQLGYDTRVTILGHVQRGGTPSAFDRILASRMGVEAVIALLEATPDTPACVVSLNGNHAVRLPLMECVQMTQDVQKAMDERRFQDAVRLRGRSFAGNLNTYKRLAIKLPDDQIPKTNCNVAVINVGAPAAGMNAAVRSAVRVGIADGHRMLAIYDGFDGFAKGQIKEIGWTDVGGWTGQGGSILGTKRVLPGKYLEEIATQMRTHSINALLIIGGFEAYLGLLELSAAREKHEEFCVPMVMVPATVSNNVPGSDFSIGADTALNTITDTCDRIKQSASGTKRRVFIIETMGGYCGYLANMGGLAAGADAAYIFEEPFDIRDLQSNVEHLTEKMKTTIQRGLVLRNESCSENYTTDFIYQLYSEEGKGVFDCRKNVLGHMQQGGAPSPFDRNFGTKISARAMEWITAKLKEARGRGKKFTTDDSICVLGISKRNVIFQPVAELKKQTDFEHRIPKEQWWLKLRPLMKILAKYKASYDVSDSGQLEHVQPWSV
Method: as §1, §2, §3

[3] = test system: PFKM; settings: PFKM; ref Foe and Kemp, 1985; cited from earlier work

effect on PFK activity, in words [1]: mixed effects | change in kcat^ATP/K0.5^ATP compared with control PFK without modulator ([1]; modulator 600 µM): −47% | change in kcat^F6P/K0.5^F6P compared with control PFK without modulator ([1]; modulator 600 µM): +157% | K0.5F6P + modulator ([1]; modulator 600 µM): 872.9 (14.9) M | VmaxF6P + modulator ([1]; modulator 600 µM): 5.65 (0.07) moles/min/mg | K0.5ATP + modulator ([1]; modulator 600 µM): 362.0 (46.5) M | VmaxATP + modulator ([1]; modulator 600 µM): 49.38 (2.48) moles/min/mg | effect on PFK activity, in words [2]: activating | change in kcat^ATP/K0.5^ATP compared with control PFK without modulator ([2]; modulator 600 µM): +39% | change in kcat^F6P/K0.5^F6P compared with control PFK without modulator ([2]; modulator 600 µM): +129% | K0.5F6P + modulator ([2]; modulator 600 µM): 821.7 (53.4) M | VmaxF6P + modulator ([2]; modulator 600 µM): 2.51 (0.11) moles/min/mg | K0.5ATP + modulator ([2]; modulator 600 µM): 290.5 (36.0) M | VmaxATP + modulator ([2]; modulator 600 µM): 37.99 (1.74) moles/min/mg
SMILES: Nc1ncnc2c1ncn2[C@@H]1O[C@H](COP(=O)(O)OP(=O)(O)O)[C@@H](O)[C@H]1O [ADP]

decrease in K0.5^F6P by AMP ([1]; F6P titration): more than 5 fold | change in kcat^ATP/K0.5^ATP compared with control PFK without modulator ([1]; modulator 1200 µM): +9% | change in kcat^F6P/K0.5^F6P compared with control PFK without modulator ([1]; modulator 1200 µM): +766% | K0.5F6P + modulator ([1]; modulator 1200 µM): 260.6 (8.2) M | VmaxF6P + modulator ([1]; modulator 1200 µM): 5.68 (0.06) moles/min/mg | K0.5ATP + modulator ([1]; modulator 1200 µM): 156.9 (17.6) M | VmaxATP + modulator ([1]; modulator 1200 µM): 44.45 (1.74) moles/min/mg | decrease in K0.5^F6P by AMP ([2]; F6P titration): two-fold decrease | change in kcat^ATP/K0.5^ATP compared with control PFK without modulator ([2]; modulator 1200 µM): +220% | change in kcat^F6P/K0.5^F6P compared with control PFK without modulator ([2]; modulator 1200 µM): +162% | K0.5F6P + modulator ([2]; modulator 1200 µM): 607.0 (31.0) M | VmaxF6P + modulator ([2]; modulator 1200 µM): 2.13 (0.06) moles/min/mg | K0.5ATP + modulator ([2]; modulator 1200 µM): 94.4 (10.8) M | VmaxATP + modulator ([2]; modulator 1200 µM): 28.38 (1.07) moles/min/mg
SMILES: Nc1ncnc2c1ncn2[C@@H]1O[C@H](COP(=O)(O)O)[C@@H](O)[C@H]1O [AMP]
IC50 or AC50 (activator) [3]: 10 µM
